Here are results for 29 molecules from patent US8557816B2, “Aurora kinase modulators and method of use” (Amgen Inc., priority 2007, dated 2013).

One test concerns the target T1, AuroraA-TPX2 (Homo sapiens, UniProt O14965).
T1 construct: 20 μL of AuroraA-TPX2 KD GST for a final volume of about 41 μL; GST
T1 sequence (O14965 133-383 limits assumed): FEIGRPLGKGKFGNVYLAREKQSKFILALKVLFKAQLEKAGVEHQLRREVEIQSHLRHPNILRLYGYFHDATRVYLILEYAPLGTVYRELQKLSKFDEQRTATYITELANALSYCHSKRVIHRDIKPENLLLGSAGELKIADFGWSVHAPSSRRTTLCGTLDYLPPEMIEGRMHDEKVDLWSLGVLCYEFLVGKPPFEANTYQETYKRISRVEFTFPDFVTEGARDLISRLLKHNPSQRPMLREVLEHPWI
T1 sequence (Q9ULW0 1-43 partner limits assumed): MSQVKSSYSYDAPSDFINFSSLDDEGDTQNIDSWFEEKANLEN
In words: AuroraA-TPX2 Homogeneous Time Resolved Fluorescent (HTRF) kinase assay. The following applies: average; read-out: AurA_IC50_IP (uM Avg). It counts as biochemical. In a few lines: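 HTRF read-out (Eu 615 nm to APC 655 nm) of phosphorylated biotin-PLK, detected with 0.02 nM europium anti-phosphoPLK antibody and 0.0005 mg/mL SA-APC after overnight equilibration.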
For orientation: TR-FRET usually uses a lanthanide donor and a delayed reading to cut background.

Another test concerns the target T2, AuroraB (Homo sapiens, UniProt Q96GD4).
T2 construct: 20 μL of AuroraB FL H is for a final volume of 41 μL; His
In words: AuroraB Homogeneous Time Resolved Fluorescent (HTRF) kinase assay. The conditions noted are these: average; read-out: AurB_IC50_IP (uM Avg). It counts as biochemical. In a few lines:
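Read-out is time-resolved FRET between europium anti-phospho-H3 antibody and streptavidin-APC, added in EDTA buffer to stop the reaction and equilibrated about 60 min (ex 320, em 615 and 655 nm). Preceding reaction: ~90 min, full-length enzyme, ATP, 0.1 μM biotin-Histone H3 substrate, Mg/Mn HEPES buffer pH 7.5.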

The structures appear in SMILES notation.

T2 sequence (Q96GD4 whole entry): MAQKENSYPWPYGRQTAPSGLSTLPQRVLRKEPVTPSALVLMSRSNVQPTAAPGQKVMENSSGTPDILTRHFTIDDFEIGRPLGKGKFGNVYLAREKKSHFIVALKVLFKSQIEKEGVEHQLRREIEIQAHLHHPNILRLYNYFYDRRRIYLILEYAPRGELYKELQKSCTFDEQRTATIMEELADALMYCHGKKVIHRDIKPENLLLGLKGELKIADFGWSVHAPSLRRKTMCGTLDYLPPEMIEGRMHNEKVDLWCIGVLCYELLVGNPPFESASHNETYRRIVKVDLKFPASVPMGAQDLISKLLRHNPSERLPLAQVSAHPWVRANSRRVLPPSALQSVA

As to `COc1ccc2c(Sc3ccc(Nc4nnc(-c5ccc(Cl)cc5)c5ccccc45)cc3)ccnc2c1` [compound 334, 4-(4-chlorophenyl)-N-(4-(7-methoxyquinolin-4-ylthio)phenyl)phthalazin-1-amine], the IC50 worked out at 0.049 µM at AuroraA-TPX2 and 0.067 µM at AuroraB.
The like results for `CCc1cc(-c2cccc(Cl)c2)nnc1Nc1ccc(Oc2ccnc3cc(OC)cnc23)cc1` [compound 335, 6-(3-chlorophenyl)-4-ethyl-N-(4-(7-methoxy-1,5-naphthyridin-4-yloxy)phenyl)pyridazin-3-amine] were, in that order, 0.062 µM and 0.021 µM.
In the same order, the values of `Cc1csc(-c2nnc(Nc3ccc(Sc4ccnc5cccnc45)cc3)c3ccccc23)c1` [compound 336, N-(4-(1,5-naphthyridin-4-ylthio)phenyl)-4-(4-methylthiophen-2-yl)phthalazin-1-amine] are 0.019 µM and 0.01 µM.
The like results for `COc1cnc2c(Oc3ccc(Nc4nnc(N5CCSCC5)c5ccccc45)cc3)ccnc2c1` [compound 337, N-(4-(7-methoxy-1,5-naphthyridin-4-yloxy)phenyl)-4-thiomorpholinophthalazin-1-amine] were, in that order, 0.076 µM and 0.015 µM.
In the case of `Cn1cc(-c2ccc3c(Oc4ccc(Nc5nnc(-c6ccccc6)c6ccccc56)cc4)ccnc3c2)cn1` [compound 338, N-(4-(7-(1-methyl-1H-pyrazol-4-yl)quinolin-4-yloxy)phenyl)-4-phenylphthalazin-1-amine], the IC50 on AuroraA-TPX2 was determined as 0.005 µM; at AuroraB it was 0.009 µM.
In the same order, the values of `c1ccc(-c2nnc(Nc3ccc(Oc4ccnc5cc(-c6ccsc6)ccc45)cc3)c3ccccc23)cc1` [compound 339, 4-phenyl-N-(4-(7-(thiophen-3-yl)quinolin-4-yloxy)phenyl)phthalazin-1-amine] are 0.021 µM and 0.028 µM.
Regarding `Fc1cc(F)c2c(Sc3ccc(Nc4nnc(-c5ccc(Cl)cc5)c5ccccc45)cc3)ccnc2c1` [compound 342, 4-(4-chlorophenyl)-N-(4-(5,7-difluoroquinolin-4-ylthio)phenyl)phthalazin-1-amine], the IC50 was 0.189 µM on AuroraA-TPX2 and 0.045 µM on AuroraB.
In the same order, the values of `c1ccc(-c2nnc(Nc3ccc(Oc4ccnc5cc(-c6ccoc6)ccc45)cc3)c3ccccc23)cc1` [compound 343, N-(4-(7-(furan-3-yl)quinolin-4-yloxy)phenyl)-4-phenylphthalazin-1-amine] are 0.024 µM and 0.008 µM.
The like results for `Cc1ccc(-c2ccc3c(Oc4ccc(Nc5nnc(-c6ccccc6)c6ccccc56)cc4)ccnc3c2)o1` [compound 344, N-(4-(7-(5-methylfuran-2-yl)quinolin-4-yloxy)phenyl)-4-phenylphthalazin-1-amine] were, in that order, 0.057 µM and 0.022 µM.
In the same order, the values of `COc1ccc2c(Oc3ccc(Nc4nnc(-c5ccc(Cl)cc5)c5ccccc45)cc3)ccnc2c1` [compound 345, 4-(4-chlorophenyl)-N-(4-(7-methoxyquinolin-4-yloxy)phenyl)phthalazin-1-amine] are 0.04 µM and 0.024 µM.
For `COc1cnc2c(Sc3ccc(Nc4nnc(N5CCCCC5)c5ccccc45)cc3)ccnc2c1` [compound 346, N-(4-(7-methoxy-1,5-naphthyridin-4-ylthio)phenyl)-4-(piperidin-1-yl)phthalazin-1-amine], the results for the IC50 at AuroraA-TPX2 and on AuroraB were 0.044 µM and 0.024 µM, respectively.
The like results for `COc1ccc2nccc(Oc3ccc(Nc4nnc(-c5ccccc5)c5ccccc45)cc3)c2n1` [compound 347, N-(4-(6-methoxy-1,5-naphthyridin-4-yloxy)phenyl)-4-phenylphthalazin-1-amine] were, in that order, 0.067 µM and 0.01 µM.
In the same order, the values of `COc1ccc2nccc(Sc3ccc(Nc4nnc(-c5ccc(Cl)cc5)c5ccccc45)cc3)c2n1` [compound 348, 4-(4-chlorophenyl)-N-(4-(6-methoxy-1,5-naphthyridin-4-ylthio)phenyl)phthalazin-1-amine] are 0.057 µM and 0.023 µM.
As for `COc1cnc2c(Oc3ccc(Nc4nnc(-c5cc(C)no5)c5ccccc45)cc3)ccnc2c1` [compound 350, N-(4-(7-methoxy-1,5-naphthyridin-4-yloxy)phenyl)-4-(3-methylisoxazol-5-yl)phthalazin-1-amine], the IC50 at AuroraA-TPX2 worked out at 0.04 µM; at AuroraB, 0.007 µM.
In the same order, the values of `N#Cc1cc2nccc(Sc3ccc(Nc4nnc(-c5ccc(Cl)cc5)c5ccccc45)cc3)c2s1` [compound 351, 7-(4-(4-(4-chlorophenyl)phthalazin-1-ylamino)phenylthio)thieno[3,2-b]pyridine-2-carbonitrile] are 0.008 µM and 0.003 µM.
Consider `c1ccc(-c2nnc(Nc3ccc(Sc4ccnc5[nH]ncc45)cc3)c3ccccc23)cc1` [compound 352, N-(4-(1H-pyrazolo[3,4-b]pyridin-4-ylthio)phenyl)-4-phenylphthalazin-1-amine], for which the IC50 turned out to be 0.074 µM on AuroraA-TPX2 and 0.001 µM at AuroraB.
In the same order, the values of `COc1cc2nccc(Sc3ccc(Nc4nnc(-c5ccccc5)c5ccccc45)cc3)c2cn1` [compound 353, N-(4-(7-methoxy-1,6-naphthyridin-4-ylthio)phenyl)-4-phenylphthalazin-1-amine] are 0.058 µM and 0.008 µM.
The like results for `COc1cc2nccc(Sc3ccc(Nc4nnc(-c5ccc(Cl)cc5)c5ccccc45)cc3)c2cn1` [compound 354, 4-(4-chlorophenyl)-N-(4-(7-methoxy-1,6-naphthyridin-4-ylthio)phenyl)phthalazin-1-amine] were, in that order, 0.025 µM and 0.009 µM.
Consider `c1ccc(-c2nnc(Nc3ccc(Sc4ccnc5ccsc45)cc3)c3ccccc23)cc1` [compound 355, 4-phenyl-N-(4-(thieno[3,2-b]pyridin-7-ylthio)phenyl)phthalazin-1-amine], for which the IC50 on AuroraA-TPX2 is 0.241 µM; on AuroraB it was 0.006 µM.
In the same order, the values of `COc1cnc2c(Sc3ccc(Nc4nnc(-c5ccc(F)cc5)c5ccccc45)cc3)ccnc2c1` [compound 356, 4-(4-fluorophenyl)-N-(4-(7-methoxy-1,5-naphthyridin-4-ylthio)phenyl)phthalazin-1-amine] are 0.036 µM and 0.012 µM.
The like results for `COc1ccc(-c2nnc(Nc3ccc(Sc4ccnc5cc(OC)cnc45)cc3)c3ccccc23)cc1` [compound 357, N-(4-(7-methoxy-1,5-naphthyridin-4-ylthio)phenyl)-4-(4-methoxyphenyl)phthalazin-1-amine] were, in that order, 0.029 µM and 0.012 µM.
Regarding `CCc1cc(-c2ccc(C)cc2)nnc1Nc1ccc(Sc2ccnc3cccnc23)cc1` [compound 358, N-(4-(1,5-naphthyridin-4-ylthio)phenyl)-4-ethyl-6-p-tolylpyridazin-3-amine], the IC50 at AuroraA-TPX2 stood at 0.049 µM; on AuroraB, 0.006 µM.
The like results for `Clc1ccc(-c2nnc(Nc3ccc(Sc4ccnc5[nH]ncc45)cc3)c3ccccc23)cc1` [compound 359, N-(4-(1H-pyrazolo[3,4-b]pyridin-4-ylthio)phenyl)-4-(4-chlorophenyl)phthalazin-1-amine] were, in that order, 0.012 µM and 0.017 µM.
For `CNC(=O)c1cc(Oc2ccc(Nc3nnc(-c4ccc(Cl)cc4)c4ccccc34)cc2)ccn1` [compound 361, 4-(4-(4-(4-chlorophenyl)phthalazin-1-ylamino)phenoxy)-N-methylpicolinamide], the IC50 at AuroraA-TPX2 was found to be 0.245 µM; at AuroraB, 0.173 µM.
The like results for `c1ccc(-c2nnc(Nc3ccc(Sc4ccnc5[nH]cnc45)cc3)c3ccccc23)cc1` [compound 362, N-(4-(3H-imidazo[4,5-b]pyridin-7-ylthio)phenyl)-4-phenylphthalazin-1-amine] were, in that order, 0.066 µM and 0.092 µM.
The like results for `Clc1ccc(-c2nnc(Nc3ccc(Sc4ccnc5[nH]cnc45)cc3)c3ccccc23)cc1` [compound 363, N-(4-(3H-imidazo[4,5-b]pyridin-7-ylthio)phenyl)-4-(4-chlorophenyl)phthalazin-1-amine] were, in that order, 0.019 µM and 0.036 µM.
In the same order, the values of `COc1ccc2c(Sc3ccc(Nc4nnc(-c5ccc(Cl)cn5)c5ccccc45)cc3)ccnc2c1` [compound 364, 4-(5-chloropyridin-2-yl)-N-(4-(7-methoxyquinolin-4-ylthio)phenyl)phthalazin-1-amine] are 0.036 µM and 0.073 µM.
Regarding `Clc1ccc(-c2nnc(Nc3ccc(Sc4ccnc5ccccc45)cc3)c3ccccc23)nc1` [compound 365, 4-(5-chloropyridin-2-yl)-N-(4-(quinolin-4-ylthio)phenyl)phthalazin-1-amine], the IC50 was found to be 0.016 µM at AuroraA-TPX2 and 0.011 µM at AuroraB.
`Cc1csc(-c2nnc(Nc3ccc(Sc4ccnc5ccsc45)cc3)c3ccccc23)c1` [compound 366, 4-(4-methylthiophen-2-yl)-N-(4-(thieno[3,2-b]pyridin-7-ylthio)phenyl)phthalazin-1-amine]: the results for the IC50 on AuroraA-TPX2 and at AuroraB were 0.037 µM and 0.051 µM, respectively.
